Here are results for two compounds from patent publication EP0045990A1, “Novel antibacterial and antiprotozoal derivatives, a process for the preparation thereof, and related pharmaceutical compositions” (Farmatis S.r.l., priority 1980, dated 1982).

A short description of series [1]: half-life in animal (dog) and in man. The conditions noted are these: in vivo.
For series [2], the system named is hepatic glutatione-S-transferase. Description: activity of hepatic glutathione-S-transferase.
Series [3] is described as follows: solubility in solvents and water. The format is physicochemical. How it is done: According to the present invention there is provided a compound of formula (I) in which R1 is -OCH3 and R is CH3, which is a crystalline yellow compound, which decomposes upon heating to 170°C, is soluble (1 : 100) in methanol and (1 : 30) in dimethylformamide, but insoluble in water.

In another series the test system is Trichomonas Vaginalis. The format is in vivo, humans. Here is the method: The clinical investigation involved 42 patients, aged from 22 to 55, affected by vaginitis induced by Trichomonas Vaginalis.
The diagnosis was determined through bacterioscopic, cultural and May-Grunwald Giemsa examinations, which were repeated 3 days after the end of the treatment. The 42 Patients were splitted into 6 groups of 7 patients each.

[4] abbreviates: treated orally (1st, 2nd, 3rd, 4th groups).

By half-life is commonly meant the time needed for the level to fall by half in the phase considered.

Each structure is given as a SMILES string.

In series [1], `Cc1ncc([N+](=O)[O-])n1CCO` [metronidazole, 1-(2-hydroxyethyl)-2-methyl-5-nitro-imidazole] had a half-life of 7.3 h. Moreover, the “activity of the hepatic glutatione-S-transferase” value in series [2] is “does not exert this action”.

On to `COc1ccc(OC(=O)CCC(=O)Nc2nccc(C=Cc3ncc([N+](=O)[O-])n3C)n2)c(C(C)(C)C)c1` [p-methoxy-o-tert-butyl-phenol ester of 5-nitro-imidazolyl-2-ethenyl-(2-amino-pyrimidyl)-N-succinic acid], for which, in series [3], the solubility in water entry was “insoluble”. Also, the complete recovery in the series on Trichomonas Vaginalis (5th group, treated only locally) is given as 85%. Moreover, in the series with Trichomonas Vaginalis (5th group, treated only locally, 3 vaginal tablets of 200 mg per day for 5 days), the “Trichomonas vaqinalis disappeared, number of patients” value is 6 out of 7 patients. For the same compound, the positive results with Trichomonas Vaginalis (6th group, treated both orally and locally) turned out to be 100%. Besides, the “activity against Trichomoniasis” value in the series with Trichomonas Vaginalis (42 patients) was “highly active”. The tolerance in patients result in the series on Trichomonas Vaginalis (human, in vivo, po) is recorded as “well tolerated”. For the same compound, in the series with Trichomonas Vaginalis (setting [4]), the complete success amounted to 98% and the “complete success, number of patients” value is reported as 25 patiens out of 28.
